The source made the active and inactive calls. No stated cut-off is given here; in the data, actives have a measured IC50 and inactives only a lower limit.

In the assay the target is Envelope glycoprotein gp160 (Human immunodeficiency virus 1, UniProt Q6QLK5). Nature of the assay: cell-free HIV fusion peptide-binding blockers – biochemical, uHTS, fluorescence dequenching, […] (AID 1986).
Envelope glycoprotein gp160, sequence (Q6QLK5 whole entry, the tested form may be a part): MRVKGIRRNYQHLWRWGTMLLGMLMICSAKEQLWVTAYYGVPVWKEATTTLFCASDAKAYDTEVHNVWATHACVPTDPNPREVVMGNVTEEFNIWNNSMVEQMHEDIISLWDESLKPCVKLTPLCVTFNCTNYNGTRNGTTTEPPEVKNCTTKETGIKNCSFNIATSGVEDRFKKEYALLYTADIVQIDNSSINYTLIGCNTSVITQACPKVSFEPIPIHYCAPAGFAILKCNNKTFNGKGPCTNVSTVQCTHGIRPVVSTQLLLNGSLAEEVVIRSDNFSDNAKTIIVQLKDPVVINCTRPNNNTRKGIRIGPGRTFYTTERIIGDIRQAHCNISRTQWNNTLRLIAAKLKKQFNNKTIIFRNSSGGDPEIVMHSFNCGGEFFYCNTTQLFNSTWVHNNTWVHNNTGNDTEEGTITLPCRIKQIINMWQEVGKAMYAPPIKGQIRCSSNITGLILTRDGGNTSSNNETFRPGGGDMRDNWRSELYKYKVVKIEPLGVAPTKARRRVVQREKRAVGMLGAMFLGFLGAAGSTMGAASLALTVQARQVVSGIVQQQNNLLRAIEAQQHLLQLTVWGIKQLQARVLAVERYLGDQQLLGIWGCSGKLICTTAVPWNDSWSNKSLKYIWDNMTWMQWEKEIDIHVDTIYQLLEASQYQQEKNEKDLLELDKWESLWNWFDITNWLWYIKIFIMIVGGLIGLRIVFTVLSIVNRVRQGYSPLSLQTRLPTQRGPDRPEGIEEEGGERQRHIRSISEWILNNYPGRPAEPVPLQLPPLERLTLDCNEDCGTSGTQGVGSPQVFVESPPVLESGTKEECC
As a reminder, the IC50 is the concentration at which inhibition is half-maximal. In the case of `N#Cc1c(-c2ccccc2)nc(SCc2ccc(Cl)cc2)[nH]c1=O`, the IC50 was 22.5 µM (active).
In the case of `COc1ccc(/C=C2/SC(=O)N(CCCCCC(=O)Nc3ccccc3C(=O)O)C2=S)cc1`, the IC50 is 18 µM (active).
Regarding `COc1cc(/C=N/Nc2ccc(Cl)c(C(=O)O)c2)ccc1OC(=O)c1ccccc1F`, the IC50 was 26.2 µM (active).

Values taken from ChEMBL document CHEMBL1201862, “PubChem BioAssay data set” (2004).
